From BindingDB's records for doi:10.1021/acsmedchemlett.8b00158 (Utah State University, 2018)

Assay: Inhibition of recombinant human Cx26 expressed in Escherichia coli LB2003 assessed as reduction in cell growth measured after 18 hrs

NC[C@H]1O[C@H](O[C@H]2[C@H](O)[C@@H](O[C@@H]3O[C@H](COCc4cccc(-c5ccccc5)c4)[C@@H](OCc4cccc(-c5ccccc5)c4)[C@H](N)[C@H]3O)[C@H](N)C[C@@H]2N)[C@H](O)[C@@H](O)[C@@H]1O
IC50: 6.2 µM

CCCCCCCCCOC[C@H]1O[C@@H](O[C@@H]2[C@@H](O)[C@H](O[C@H]3O[C@H](CN)[C@@H](O)[C@H](O)[C@H]3O)[C@@H](N)C[C@H]2N)[C@H](O)[C@@H](N)[C@@H]1OCCCCCCCCC
IC50: 18.8 µM

NC[C@H]1O[C@H](O[C@H]2[C@H](O)[C@@H](O[C@@H]3O[C@H](COCc4cccc5ccccc45)[C@@H](OCc4cccc5ccccc45)[C@H](N)[C@H]3O)[C@H](N)C[C@@H]2N)[C@H](O)[C@@H](O)[C@@H]1O
IC50: 6.6 µM

CCCCCCCCOC[C@H]1O[C@@H](O[C@@H]2[C@@H](O)[C@H](O[C@H]3O[C@H](CN)[C@@H](O)[C@H](O)[C@H]3O)[C@@H](N)C[C@H]2N)[C@H](O)[C@@H](N)[C@@H]1OCCCCCCCC
IC50: 13.6 µM

CO[C@@H]1[C@@H](O[C@@H]2O[C@H](COCc3ccccc3)[C@@H](OCc3ccccc3)[C@H](N)[C@H]2OC)[C@H](N)C[C@H](N)[C@H]1O[C@H]1O[C@H](CN)[C@@H](OC)[C@H](OC)[C@H]1OC
IC50: 8.4 µM

CCCCCCO[C@H]1[C@H](N)[C@@H](O)[C@H](O[C@@H]2[C@@H](O)[C@H](O[C@H]3O[C@H](CN)[C@@H](O)[C@H](O)[C@H]3O)[C@@H](N)C[C@H]2N)O[C@@H]1CO
IC50: 13.5 µM

NC[C@H]1O[C@H](O[C@H]2[C@H](O)[C@@H](O[C@@H]3O[C@H](COCc4ccc(Cl)cc4)[C@@H](OCc4ccc(Cl)cc4)[C@H](N)[C@H]3O)[C@H](N)C[C@@H]2N)[C@H](O)[C@@H](O)[C@@H]1O
IC50: 2.5 µM

NC[C@H]1O[C@H](O[C@H]2[C@H](O)[C@@H](O[C@@H]3O[C@H](COCc4ccc(F)cc4)[C@@H](OCc4ccc(F)cc4)[C@H](N)[C@H]3O)[C@H](N)C[C@@H]2N)[C@H](O)[C@@H](O)[C@@H]1O
IC50: 8.1 µM

Cc1ccc(COC[C@H]2O[C@@H](O[C@@H]3[C@@H](O)[C@H](O[C@H]4O[C@H](CN)[C@@H](O)[C@H](O)[C@H]4O)[C@@H](N)C[C@H]3N)[C@H](O)[C@@H](N)[C@@H]2OCc2ccc(C)cc2)cc1
IC50: 4.3 µM

CCCCCCOC[C@H]1O[C@@H](O[C@@H]2[C@@H](O)[C@H](O[C@H]3O[C@H](CN)[C@@H](O)[C@H](O)[C@H]3O)[C@@H](N)C[C@H]2N)[C@H](O)[C@@H](N)[C@@H]1OCCCCCC
IC50: 6.2 µM

COc1ccc(COC[C@H]2O[C@@H](O[C@@H]3[C@@H](O)[C@H](O[C@H]4O[C@H](CN)[C@@H](O)[C@H](O)[C@H]4O)[C@@H](N)C[C@H]3N)[C@H](O)[C@@H](N)[C@@H]2OCc2ccc(OC)cc2)cc1
IC50: 13 µM

CCCCOC[C@H]1O[C@@H](O[C@@H]2[C@@H](O)[C@H](O[C@H]3O[C@H](CN)[C@@H](O)[C@H](O)[C@H]3O)[C@@H](N)C[C@H]2N)[C@H](O)[C@@H](N)[C@@H]1OCCCC
IC50: 19 µM

NC[C@H]1O[C@H](O[C@H]2[C@H](O)[C@@H](O[C@@H]3O[C@H](COCc4ccc5ccccc5c4)[C@@H](OCc4ccc5ccccc5c4)[C@H](N)[C@H]3O)[C@H](N)C[C@@H]2N)[C@H](O)[C@@H](O)[C@@H]1O
IC50: 4.9 µM
